Laboratory results reported in patent publication US4837371A, “Process for concentration of an aqueous solution of amino acid” (Mitsui Toatsu Chemicals, Inc., priority 1986, dated 1989).
Like-named read-outs stand apart in the source and are kept apart here.

Columns and labels:
[1] = cited from earlier work; for solubility change with alcohol (in words): alcohol present in aqueous solution; for solubility in water (in words): at the isoelectric point
[2] = solubility of L-tryptophan in an ethanol-aqueous solution (Referential Example 1); format: physicochemical; conditions: pH 5.89, 20° to 75° C.
Experimental: The pH of the aqueous solution was adjusted to the isoelectric point (5.89), and the aqueous solution was prepared from distilled water and reagent grade ethanol. In FIG. 1, letters a, b, c and d represent the solubility curves of L-tryptophan for the ethanol solution of different compositions shown below. […]
a: Ethanol: 0 Distilled water: 100 (parts by volume) b: Ethanol: 30 Distilled water: 70 c: Ethanol: 50 Distilled water: 50 d: Ethanol: 70 Distilled water: 30

[3] = acid dissociation constant; listed as tryptophane; cited from earlier work

Compound | solubility change with alcohol (in words) [1] | solubility in water (in words) [1] | also measured
N[C@@H](Cc1ccccc1)C(=O)O [phenylalanine] | increase in solubility |  | 
C[C@H](N)C(=O)O [alanine] | decrease in solubility |  | 
N[C@@H](CSSC[C@H](N)C(=O)O)C(=O)O [cystine] |  | sparingly soluble in water at the isoelectric point | 
CSCC[C@H](N)C(=O)O [methionine] |  | sparingly soluble in water at the isoelectric point | 
N[C@@H](Cc1c[nH]c2ccccc12)C(=O)O [L-tryptophan] | increase in solubility | sparingly soluble in water at the isoelectric point | solubility, temperature dependence [2]: increases as the temperature goes up from 20 °C to 75 °C; pK1 [3]: 2.3; solubility by adjustment of pH only ([1]; pH not less than 11 or not more than 2): 8 to 10 wt. %; increase of solubility on raising solution temperature ([1]; solution temperature raised to 60° C.): ≤ 2%; solubility in water (in words) ([1]; listed as tryptophane): very low solubility in water
NCCCC[C@H](N)C(=O)O [lysine] |  | highly soluble in water | 
